Laboratory results as given in the NIST ThermoML archive (doi:10.1016/j.jct.2016.02.009).
± gives the expanded uncertainty stated by the source.

Assay: molar heat capacity at constant pressure
Settings: 101.33 kPa, Crystal 2, Small (less than 1 g) adiabatic calorimetry

CCCCCCCCCCCCCCn1cc[n+](C)c1.O=S(=O)([N-]S(=O)(=O)C(F)(F)F)C(F)(F)F
molar heat capacity at constant pressure (4.89 K): 3.21 ± 0.09 J/K/mol
molar heat capacity at constant pressure (5 K): 3.43 ± 0.11 J/K/mol
molar heat capacity at constant pressure (5.1 K): 3.64 ± 0.1 J/K/mol
molar heat capacity at constant pressure (5.39 K): 4.23 ± 0.12 J/K/mol
molar heat capacity at constant pressure (5.69 K): 4.88 ± 0.13 J/K/mol
molar heat capacity at constant pressure (6 K): 5.63 ± 0.15 J/K/mol
molar heat capacity at constant pressure (6.34 K): 6.47 ± 0.17 J/K/mol
molar heat capacity at constant pressure (6.73 K): 7.47 ± 0.19 J/K/mol
molar heat capacity at constant pressure (7.11 K): 8.54 ± 0.22 J/K/mol
molar heat capacity at constant pressure (7.5 K): 9.67 ± 0.24 J/K/mol
molar heat capacity at constant pressure (7.9 K): 10.86 ± 0.27 J/K/mol
molar heat capacity at constant pressure (8.3 K): 12.12 ± 0.3 J/K/mol
molar heat capacity at constant pressure (8.7 K): 13.43 ± 0.33 J/K/mol
molar heat capacity at constant pressure (9.11 K): 14.79 ± 0.36 J/K/mol
molar heat capacity at constant pressure (9.52 K): 16.21 ± 0.39 J/K/mol
molar heat capacity at constant pressure (9.93 K): 17.69 ± 0.42 J/K/mol
molar heat capacity at constant pressure (10 K): 17.94 ± 0.35 J/K/mol
molar heat capacity at constant pressure (10.45 K): 19.63 ± 0.31 J/K/mol
molar heat capacity at constant pressure (11.1 K): 22.1 ± 0.35 J/K/mol
molar heat capacity at constant pressure (11.75 K): 24.67 ± 0.38 J/K/mol
molar heat capacity at constant pressure (12.39 K): 27.32 ± 0.42 J/K/mol
molar heat capacity at constant pressure (13.04 K): 30.06 ± 0.45 J/K/mol
molar heat capacity at constant pressure (13.7 K): 32.85 ± 0.49 J/K/mol
molar heat capacity at constant pressure (14.36 K): 35.72 ± 0.52 J/K/mol
molar heat capacity at constant pressure (15 K): 38.56 ± 0.54 J/K/mol
molar heat capacity at constant pressure (15.02 K): 38.63 ± 0.56 J/K/mol
molar heat capacity at constant pressure (15.8 K): 42.14 ± 0.6 J/K/mol
molar heat capacity at constant pressure (16.7 K): 46.22 ± 0.65 J/K/mol
molar heat capacity at constant pressure (17.61 K): 50.37 ± 0.7 J/K/mol
molar heat capacity at constant pressure (18.51 K): 54.57 ± 0.75 J/K/mol
molar heat capacity at constant pressure (19.42 K): 58.74 ± 0.79 J/K/mol
molar heat capacity at constant pressure (20 K): 61.41 ± 0.6 J/K/mol
molar heat capacity at constant pressure (20.33 K): 62.84 ± 0.6 J/K/mol
molar heat capacity at constant pressure (21.54 K): 68.49 ± 0.64 J/K/mol
molar heat capacity at constant pressure (23.07 K): 75.56 ± 0.67 J/K/mol
molar heat capacity at constant pressure (24.61 K): 82.47 ± 0.7 J/K/mol
molar heat capacity at constant pressure (25 K): 84.18 ± 0.7 J/K/mol
molar heat capacity at constant pressure (26.14 K): 89.18 ± 0.72 J/K/mol
molar heat capacity at constant pressure (27.68 K): 95.96 ± 0.73 J/K/mol
molar heat capacity at constant pressure (29.23 K): 102.6 ± 0.7 J/K/mol
molar heat capacity at constant pressure (30 K): 105.9 ± 0.6 J/K/mol
molar heat capacity at constant pressure (30.94 K): 110.1 ± 0.6 J/K/mol
molar heat capacity at constant pressure (32.82 K): 117.9 ± 0.7 J/K/mol
molar heat capacity at constant pressure (34.72 K): 125.4 ± 0.7 J/K/mol
molar heat capacity at constant pressure (35 K): 126.4 ± 0.7 J/K/mol
molar heat capacity at constant pressure (36.61 K): 132.8 ± 0.8 J/K/mol
molar heat capacity at constant pressure (38.5 K): 140.1 ± 0.8 J/K/mol
molar heat capacity at constant pressure (40 K): 145.8 ± 0.8 J/K/mol
molar heat capacity at constant pressure (40.39 K): 147.2 ± 0.8 J/K/mol
molar heat capacity at constant pressure (42.38 K): 154.5 ± 0.9 J/K/mol
molar heat capacity at constant pressure (44.49 K): 162.2 ± 0.9 J/K/mol
molar heat capacity at constant pressure (45 K): 164.1 ± 1 J/K/mol
molar heat capacity at constant pressure (46.6 K): 169.8 ± 1 J/K/mol
molar heat capacity at constant pressure (48.71 K): 177.1 ± 1 J/K/mol
molar heat capacity at constant pressure (50 K): 181.5 ± 1 J/K/mol
molar heat capacity at constant pressure (50.83 K): 184.3 ± 1 J/K/mol
molar heat capacity at constant pressure (52.96 K): 191.2 ± 1.1 J/K/mol
molar heat capacity at constant pressure (55.08 K): 198 ± 1.1 J/K/mol
molar heat capacity at constant pressure (57.2 K): 204.8 ± 1.1 J/K/mol
molar heat capacity at constant pressure (59.33 K): 211.5 ± 1.2 J/K/mol
molar heat capacity at constant pressure (60 K): 213.6 ± 1.2 J/K/mol
molar heat capacity at constant pressure (61.45 K): 218 ± 1.2 J/K/mol
molar heat capacity at constant pressure (63.59 K): 224.5 ± 1.2 J/K/mol
molar heat capacity at constant pressure (65.72 K): 230.7 ± 1.3 J/K/mol
molar heat capacity at constant pressure (67.86 K): 236.8 ± 1.3 J/K/mol
molar heat capacity at constant pressure (70 K): 242.6 ± 1.4 J/K/mol
molar heat capacity at constant pressure (70.01 K): 242.5 ± 1.3 J/K/mol
molar heat capacity at constant pressure (72.16 K): 248.4 ± 1.4 J/K/mol
molar heat capacity at constant pressure (74.3 K): 254.1 ± 1.4 J/K/mol
molar heat capacity at constant pressure (76.46 K): 260.1 ± 1.4 J/K/mol
molar heat capacity at constant pressure (78.61 K): 266.1 ± 1.5 J/K/mol
molar heat capacity at constant pressure (80 K): 269.2 ± 1.5 J/K/mol
molar heat capacity at constant pressure (80.77 K): 271.8 ± 1.5 J/K/mol
molar heat capacity at constant pressure (81.2 K): 272.4 ± 1.5 J/K/mol
molar heat capacity at constant pressure (82.94 K): 276.6 ± 1.5 J/K/mol
molar heat capacity at constant pressure (83.19 K): 277.4 ± 1.5 J/K/mol
molar heat capacity at constant pressure (85.13 K): 281.8 ± 1.6 J/K/mol
molar heat capacity at constant pressure (85.17 K): 281.5 ± 1.6 J/K/mol
molar heat capacity at constant pressure (87.16 K): 286.5 ± 1.6 J/K/mol
molar heat capacity at constant pressure (89.15 K): 291.4 ± 1.6 J/K/mol
molar heat capacity at constant pressure (90 K): 293.7 ± 1.5 J/K/mol
molar heat capacity at constant pressure (91.14 K): 296.2 ± 1.5 J/K/mol
molar heat capacity at constant pressure (93.13 K): 301 ± 1.6 J/K/mol
molar heat capacity at constant pressure (95.13 K): 305.5 ± 1.6 J/K/mol
molar heat capacity at constant pressure (97.13 K): 310.1 ± 1.6 J/K/mol
molar heat capacity at constant pressure (99.14 K): 314.6 ± 1.6 J/K/mol
molar heat capacity at constant pressure (100 K): 316.7 ± 1.7 J/K/mol
molar heat capacity at constant pressure (101.15 K): 319.3 ± 1.7 J/K/mol
molar heat capacity at constant pressure (103.16 K): 324 ± 1.7 J/K/mol
molar heat capacity at constant pressure (105.16 K): 328.1 ± 1.7 J/K/mol
molar heat capacity at constant pressure (107.17 K): 332.6 ± 1.7 J/K/mol
molar heat capacity at constant pressure (109.18 K): 336.8 ± 1.7 J/K/mol
molar heat capacity at constant pressure (110 K): 338.4 ± 1.8 J/K/mol
molar heat capacity at constant pressure (111.2 K): 340.6 ± 1.8 J/K/mol
molar heat capacity at constant pressure (113.23 K): 345 ± 1.8 J/K/mol
molar heat capacity at constant pressure (115.25 K): 349.2 ± 1.8 J/K/mol
molar heat capacity at constant pressure (117.27 K): 353.4 ± 1.8 J/K/mol
molar heat capacity at constant pressure (119.3 K): 357.4 ± 1.8 J/K/mol
molar heat capacity at constant pressure (120 K): 358.8 ± 1.8 J/K/mol
molar heat capacity at constant pressure (121.32 K): 361.5 ± 1.9 J/K/mol
molar heat capacity at constant pressure (123.35 K): 365.5 ± 1.9 J/K/mol
molar heat capacity at constant pressure (124.9 K): 368.4 ± 1.9 J/K/mol
molar heat capacity at constant pressure (125.83 K): 370.4 ± 1.9 J/K/mol
molar heat capacity at constant pressure (127.42 K): 373.3 ± 1.9 J/K/mol
molar heat capacity at constant pressure (128.64 K): 376 ± 1.9 J/K/mol
molar heat capacity at constant pressure (129.89 K): 378.2 ± 1.9 J/K/mol
molar heat capacity at constant pressure (130 K): 378.6 ± 1.9 J/K/mol
molar heat capacity at constant pressure (131.38 K): 381.2 ± 2 J/K/mol
molar heat capacity at constant pressure (132.35 K): 383 ± 2 J/K/mol
molar heat capacity at constant pressure (134.13 K): 386.5 ± 2 J/K/mol
molar heat capacity at constant pressure (134.81 K): 387.8 ± 2 J/K/mol
molar heat capacity at constant pressure (136.88 K): 391.8 ± 2 J/K/mol
molar heat capacity at constant pressure (137.28 K): 392.5 ± 2 J/K/mol
molar heat capacity at constant pressure (139.62 K): 397 ± 2 J/K/mol
molar heat capacity at constant pressure (139.75 K): 397.2 ± 2 J/K/mol
molar heat capacity at constant pressure (140 K): 397.8 ± 2 J/K/mol
molar heat capacity at constant pressure (142.22 K): 402.1 ± 2.1 J/K/mol
molar heat capacity at constant pressure (142.37 K): 402.3 ± 2.1 J/K/mol
molar heat capacity at constant pressure (144.69 K): 406.6 ± 2.1 J/K/mol
molar heat capacity at constant pressure (145.12 K): 407.7 ± 2.1 J/K/mol
molar heat capacity at constant pressure (147.16 K): 411.2 ± 2.1 J/K/mol
molar heat capacity at constant pressure (147.86 K): 412.6 ± 2.1 J/K/mol
molar heat capacity at constant pressure (149.63 K): 415.9 ± 2.1 J/K/mol
molar heat capacity at constant pressure (150 K): 416.6 ± 2.2 J/K/mol
molar heat capacity at constant pressure (150.61 K): 418 ± 2.1 J/K/mol
molar heat capacity at constant pressure (152.1 K): 420.5 ± 2.1 J/K/mol
molar heat capacity at constant pressure (153.36 K): 423.1 ± 2.2 J/K/mol
molar heat capacity at constant pressure (154.57 K): 425.1 ± 2.2 J/K/mol
molar heat capacity at constant pressure (156.12 K): 428.1 ± 2.2 J/K/mol
molar heat capacity at constant pressure (157.05 K): 429.7 ± 2.2 J/K/mol
molar heat capacity at constant pressure (158.87 K): 433.3 ± 2.2 J/K/mol
molar heat capacity at constant pressure (159.52 K): 434.5 ± 2.2 J/K/mol
molar heat capacity at constant pressure (160 K): 435.3 ± 2.2 J/K/mol
molar heat capacity at constant pressure (161.63 K): 438.6 ± 2.2 J/K/mol
molar heat capacity at constant pressure (161.99 K): 439.1 ± 2.2 J/K/mol
molar heat capacity at constant pressure (164.38 K): 443.7 ± 2.3 J/K/mol
molar heat capacity at constant pressure (164.46 K): 443.6 ± 2.3 J/K/mol
molar heat capacity at constant pressure (166.93 K): 448.2 ± 2.3 J/K/mol
molar heat capacity at constant pressure (167.13 K): 448.7 ± 2.3 J/K/mol
molar heat capacity at constant pressure (169.4 K): 453 ± 2.3 J/K/mol
molar heat capacity at constant pressure (169.88 K): 453.9 ± 2.3 J/K/mol
molar heat capacity at constant pressure (170 K): 454.1 ± 2.3 J/K/mol
molar heat capacity at constant pressure (171.87 K): 457.5 ± 2.3 J/K/mol
molar heat capacity at constant pressure (172.63 K): 459.1 ± 2.3 J/K/mol
molar heat capacity at constant pressure (174.33 K): 462.3 ± 2.4 J/K/mol
molar heat capacity at constant pressure (175.38 K): 464.4 ± 2.4 J/K/mol
molar heat capacity at constant pressure (176.79 K): 467 ± 2.4 J/K/mol
molar heat capacity at constant pressure (178.12 K): 469.7 ± 2.4 J/K/mol
molar heat capacity at constant pressure (179.25 K): 471.5 ± 2.4 J/K/mol
